# Assay results published in patent US20240262844A1, “PYRIDINIUM SALTS AND METHODS OF USE” (UNIVERSITY OF WYOMING, priority 2023, published 2024).
# Where “and” joins values, the source holds several entries; their conditions need not be identical. Equal entries are not always repeated. Structures can show the parent of a compound that is named as a salt.
# What was measured:
# thioredoxin (11.6 kDa) = target: T1, thioredoxin (11.6 kDa) (Escherichia coli, UniProt P0AA25); experiment: Photochemical labeling of thioredoxin (LC/MS, MS-MS); format: biochemical
# T1 construct: purchased Sigma Aldrich; host or cells: E. coli
# Procedure: General Procedure B: Photochemical Irradiation of Peptides and Proteins: To a 2 mL Pyrex LC/MS vial (Thermo model #03-391-39) were sequentially added solutions containing the desired biomolecule, glutathione (GSH), pyridinium salt, and ammonium acetate (NH4OAc). The resulting solution was diluted to a final volume of 500 μL and then sparged using nitrogen for a minimum of 30 minutes prior to irradiation. The actively sparging solution was then placed in an EvoluChem™ PhotoRedOx Box photoreactor that was equipped with a Kessil, PR160 427 nm LED Lamp and was then irradiated (100% lamp intensity) for the designated time at room temperature while maintaining active sparging. The resultant reaction mixture was then analyzed directly by LC/MS. Analysis of labeling outcomes using LC/MS was performed either by extracted ion chromatogram intensities (method A) or by integrating the area under the peaks associated with peptide content (method B). These values were totaled, and estimated percentages were assigned according to relative intensities of peaks or ion counts.
# Labeling of Thioredoxin with Pyridinium Salt 2a (Thioredoxin-2a Conjugate). […] The reaction mixture was directly analyzed by LC/MS using method A and was estimated to have proceeded with 93% conversion and a 14.5:1 mono:di labeled ratio and 3% glutathionylation of all protein content. […]
# [1] = Stern-Volmer fluorescence quenching analysis; format: physicochemical; settings: 100 μM pyridinium salt in 20 mM NH4OAc pH 6.9, increasing NATA, 375 nm excitation
# Procedure: FIG. 7 is a Stern-Volmer plot of florescence quenching of pyridinium salt 2a with a small molecule tryptophan analog N-acetyltryptophanamide (NATA) according to at least one embodiment of the present disclosure. The Stern-Volmer plot was generated by excitation of a 100 μM solution of pyridinium salt 2a in 20 mM NH4OAc pH 6.9 in the presence of increasing concentrations of NATA. Analyses were performed at 375 nm excitation. The calculated Kq, assuming 11 (0.2548 ns) quenching, was determined to be about 1.019E5 M^−1s^−1. The calculated Kq, assuming τ2 (3.399 ns) quenching, was determined to be about 7.638E3 M^−1s^−1.
# T1 sequence (P0AA25 whole entry): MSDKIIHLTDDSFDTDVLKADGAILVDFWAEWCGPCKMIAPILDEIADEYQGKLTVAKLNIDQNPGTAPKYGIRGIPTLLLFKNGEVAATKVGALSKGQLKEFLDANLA
smiles,measurement,setting,value
"COC(=O)N(C)[n+]1c(C)cc(-c2ccc3cc(OC)ccc3c2)cc1C [Pyridinium salt 2a, 1-((methoxycarbonyl)(methyl)amino)-4-(6-methoxynapthalen-2-yl)-2,6-dimethylpyridin-1-ium tetrafluoroborate]",conversion,"thioredoxin (11.6 kDa); 10 μM thioredoxin, 200 μM pyridinium salt, 300 μM glutathione, 20 mM NH4OAc pH 6.9, 427 nm, 60 minutes",93% and 87%
same,site of tryptophan modification,thioredoxin (11.6 kDa); digestion/MS-MS,Trp-31
same,"calculated Kq, assuming τ1 (0.2548 ns) quenching",[1],about 1.019E5 M^−1s^−1
same,"calculated Kq, assuming τ2 (3.399 ns) quenching",[1],about 7.638E3 M^−1s^−1
